Like-named read-outs stand apart in the source and are kept apart here.
Assays:
HepG2 = assay: Cytotoxicity assay using MTS in human hepatocytes; assay type: cell-based; conditions: for SI, selectivity index = [IC50 (HepG2)/IC50 (Dd2)]: HepG2 versus Dd2
[1] = system: CQ-resistant (Dd2) strain of P. falciparum; assay: In vitro antiplasmodial activity, SYBR Green I fluorescence assay, Dd2 strain; assay type: cell-based, Plasmodium falciparum
Protocol: (§1) A set of 104 new styrylquinoline derivatives were synthesized and investigated for in vitro their antimalarial activity. To test antimalarial activities, different dilutions of compounds were added to P. falciparum culture. Following 72 h incubation at 37° C. in an atmosphere containing 5% CO2, the inhibitory property of the compounds were determined by SYBR Green I fluorescence assay. Meanwhile, SARs studies were conducted.
The SAR studies were focused on improving the in vitro activity of 2-arylvinylquinolines against the CQ-resistant Pf Dd2 strain.

[2] = system: P. falciparum 3D7 strain (CQ-sensitive); assay: In vitro antiplasmodium activity, 3D7 strain; assay type: cell-based, Plasmodium falciparum
Protocol: as §1

[3] = In vitro microsomal turnover assay (metabolic stability)
Protocol: Selectivity of compounds were determined by cytoxicity assay using MTS [(3-(4,5-dimethylthiazol-2-yl)-5-(3-carboxymethoxyphenyl)-2-(4-sulfophenyl)-2H-tetrazolium) in human hepatocytes. The metabolic stability of compounds was determined in mouse liver microsomes using an NADPH-regenerating system. The aqueous solubility at pH 7.4 was determined by UV-visible absorption based method. The permeability was assessed by the in vitro double-sink parallel artificial membrane permeability assay 52 that is a model for the passive transport from the gastrointestinal tract into the blood stream.
To assess the metabolic stability, the selected compounds were subjected to an in vitro microsomal turnover assay with mouse liver microsomal preparations. This assay determines the percentage of the parent compound residues after 60 min incubation (Table 7).

[4] = system: late stage (IV-V) gametocytes of 3D7 expressing luciferase parasite; assay: In vitro gametocytocidal activity, late stage; assay type: cell-based, Plasmodium falciparum; conditions: late stage gametocytes, means and SEMs of three experiments
From the text: (§2) Late stage (IV-V) gametocytes are more refractory to antimalarial drugs than early-stage gametocytes and blood stage parasites, and thus fewer compounds are effective against late stage Pf gametocytes. […] FIGS. 4A and 4B are an examples according to various embodiments illustrating results showing the activity of compound 24 on gametocyte stages, based on an evaluation of the viability of gametocytes after the exposure of compound 24 on early (A) and late (B) gametocytes stages of 3D7 expressing luciferase parasite. In FIGS. 4A and 4B, EC50 data represent the means and SEMs of three experiments. Therefore, arylvinylquinolines represented good leads as new antimalarials with promising dual stage (blood and gametocyte) activity.

[5] = system: early stage (I-III) gametocytes of 3D7 expressing luciferase parasite; assay: In vitro gametocytocidal activity, early stage; assay type: cell-based, Plasmodium falciparum
From the text: as §2

[6] = Cytotoxicity assay using MTS in human hepatocytes; assay type: cell-based; conditions: human; Table 6B, unit inferred; footnote IC50 (HepG2); read-out: Cytotoxic activity HepG2 (converted)
[7] = system: β-hematin crystal formation; assay: β-hematin inhibition experiment; assay type: biochemical; conditions: 100 μM hemin, 16 h at 37° C., up to 200 μM compound
Protocol: CQ and other aminoquinolines are known to fight against the malaria parasites by blocking hematin biocrystallization (hemozoin formation) through π-π stacking between the aminoquinoline scaffold and the heme. As a result, the accumulated toxic heme causes the parasite death by introducing oxidative membrane damage. β-hematin inhibition experiments were performed to determine possible mode of actions of arylvinylquinolines. FIG. 5A is an example according to various embodiments illustrating images of β-hematin crystals after incubation of 100 μM hemin, propionate buffer, phosphatidylcholine and, several concentrations of compound for 16 h at 37° C. […] In FIGS. 5A and 5B, the data are mean±SEM.

[8] = system: tightly synchronized Dd2 parasites; assay: Developmental stage specific action (Giemsa microscopy and flow cytometry); assay type: cell-based, Plasmodium falciparum; conditions: 5×EC50, treated at 6, 18, 30 and 42 h post-invasion
Protocol: Accurate definition of the timing of action of antimalarial agents could give valuable insights into the developmental growth and clinical clearance of the parasite. To further understand the antimalarial activity of arylvinylquinolines, the developmental stage specific action of the most promising compound 24 was determined by both microscopy and flow cytometry analysis. Tightly synchronized cultures were exposed to 5×EC50 concentration of compound 24 at 6, 18, 30 and 42 hours post-invasion (HPI) of the merozoites. Microscopic analysis of Giemsa-stained-thin smears and flow cytometric evaluation were performed at 12 h intervals.
In FIGS. 2A and 2B, the results are representative of three independent biological replicates.

[9] = system: asynchronous Dd2 parasite cultures; assay: Kill kinetic experiments (rate of killing, parasitocidal/parasitostatic); assay type: cell-based, Plasmodium falciparum; conditions: 5×EC50 (Atovaquone 6.6 nM) for 6, 12, 24 and 48 h
Protocol: To study whether arylvinylquinolines exerted their antiplasmodial activity through a parasitocidal or parasitostatic mechanism, kill kinetic experiments in Dd2 strain were performed. […] After washing to remove the inhibitors at these time points, the growth of the cultures was continued to be assessed for 96 h.
FIGS. 3A, 3B, 3C, and 3D are examples according to various embodiments illustrating rate of killing and parasitocidal/parasitostatic activity determination of arylvinylquinolines. […] After each exposure, cultures were washed three times in RPMI, resuspended in culture media, and monitored for parasite growth daily for 4 days. DHA and Atovaquone (50 nM and 6.6 nM) were included as fast and slow acting controls, respectively. Parasitemia was determined by microscopy of Giemsa stained smear.

[10] = CQ-resistant (Dd2) strain, 72 h incubation, read-out: EC50 (nmol)
[11] = Table 6A, unit not given (text gives nM), footnote calls it IC50, read-out: Antiplasmodium activity Dd2 (converted)
[12] = Table 6A, nM, footnote calls it IC50, read-out: Antiplasmodium activity 3D7 (converted)
[13] = Plasmodium falciparum, 3D7, read-out: Early stage IC50 (nM)
[14] = Table 6B, unit inferred, footnote IC50 (HepG2), read-out: Cytotoxic activity HepG2 (converted)
[15] = mouse liver microsomes, 60 min incubation

| Compound | IC50 (HepG2) [µM] | SI, selectivity index = [IC50 (HepG2)/IC50 (Dd2)] (HepG2) | EC50 [1, 10] [nM] | EC50 [1, 11] [nM] | EC50 [2, 12] [nM] | Projected t1/2 [3] [min] | Clint ([3]; mouse, microsomes) [µL/min/mg] | % remaining after 60 min ([3]; mouse, microsomes, 1 h) [%] | RI, resistance index = [IC50 (Dd2)/IC50 (3D7)] [1] | EC50 ([1]; Dd2 strain, read-out: EC50) [nM] | also measured |
| --- | --- | --- | --- | --- | --- | --- | --- | --- | --- | --- | --- |
| FC(F)(F)c1ccc(/C=C/c2cc(NCCCCN3CCOCC3)c3cc(Cl)ccc3n2)cc1 [Compound 98] | 10.2 ± 2.39 | 332 | 30.7 ± 5.2 | 30.7 ± 5.2 | 73.8 ± 9.7 | 64.9 | 21.4 | 52.7 |  |  |  |
| CN(C)c1ccc2nc3ccc(=[N+](C)C)cc-3sc2c1 [Methylene blue, reference compound] |  |  |  |  |  |  |  |  |  |  | IC50 ([4]; Plasmodium falciparum, 3D7): 107 ± 46.3 nM; IC50 [5, 13]: 74.7 ± 21.9 nM |
| CN(C)CCNc1cc(/C=C/c2ccncc2)nc2ccc(Cl)cc12 [Compound 50] |  | 212 | 28.8 ± 5 | 28.8 |  |  |  |  | 0.6 0.6 0.5 0.3 0.5 | 28.8 ± 5 | IC50 (HepG2; [14]): 6.11 µM; EC50 ([2]; read-out: Antiplasmodium activity 3D7 (converted)): 56.6 nM; Clint ([3]; mouse liver microsomes): 62.2 µL/min/mg; Projected t1/2 ([3]; mouse liver microsomes (MLM)): 22.3 min; % remaining after 60 min [3, 15]: 15.5% |
| Clc1ccc2nc(/C=C/c3ccncc3)cc(NCCCCN3CCOCC3)c2c1 [Compound 93] | 5.67 | 561 | 9.9 ± 1.3 | 9.9 | 20.8 | 14.4 | 96.2 | 5.62 |  | 9.9 ± 1.3 |  |
| C[C@H]1[C@@H](O)O[C@@H]2O[C@@]3(C)CC[C@H]4[C@H](C)CC[C@@H]1[C@@]24OO3 [DHA, dihydroartemisinin, reference compound] |  |  |  |  |  |  |  |  |  |  | IC50 ([4]; Plasmodium falciparum, 3D7): 37.4 ± 8.9 nM; IC50 [5, 13]: 17.4 ± 3.7 nM |
| Fc1ccc(/C=C/c2cc(NCCCCN3CCOCC3)c3cc(Cl)ccc3n2)cc1 [Compound 92] | 3.55 ± 0.384 | 1478 | 2.4 ± 1.1 | 2.4 ± 1.1 | 6.9 ± 1.3 | 22.2 | 62.4 | 15.4 |  |  |  |
| CN(C)CCNc1cc(/C=C/c2ccccc2F)nc2ccc(Cl)cc12 [Compound 30] | 4.83 | 186 | 26 ± 0.9 | 26 |  |  |  |  |  | 26 ± 0.9 | RI, resistance index = [IC50 (Dd2)/IC50 (3D7)] ([1]; Dd2 versus 3D7): 0.5; EC50 ([2]; 3D7 strain, read-out: EC50): 55.9 ± 9.5 nM |
| CCN(CC)CCCC(C)Nc1ccnc2cc(Cl)ccc12 (centres unmarked) [CQ, Chloroquine, reference compound] |  | 60 |  |  |  |  |  |  | 9.8 |  | IC50 [6]: 10.4 ± 0.86 µM; EC50 ([1]; Plasmodium falciparum, DD2, 72 h, CQ-resistant (Dd2) strain, 72 h incubation): 174 ± 15.5 nM; EC50 ([1]; Plasmodium falciparum, DD2, read-out: Antiplasmodium activity Dd2, Table 6A, unit not given (text gives nM), footnote calls it IC50): 174 ± 15.5 nM; EC50 ([2]; Plasmodium falciparum, 3D7, Table 6A, nM, footnote calls it IC50, read-out: Antiplasmodium activity 3D7 (converted)): 17.8 ± 5.5 nM; inhibitory activity towards β-hematin formation [7]: potently inhibited |
| CN1CCN(CCNc2cc(/C=C/c3ccc(F)cc3)nc3ccc(Cl)cc23)CC1 [Compound 86] | 3.2 ± 0.491 | 209 | 15.3 ± 3.4 | 15.3 ± 3.4 | 15.7 ± 2.9 | 60.3 | 23.0 | 50.2 | 1 |  | stage-specific inhibition of P. falciparum growth [8]: stage-specific action at the trophozoite phase; IC50 [4]: 2500 ± 424 nM; rate of killing (parasitemia after exposure and wash-out) [9]: remarkable reduction in parasitemias; IC50 ([5]; early stage gametocytes, means and SEMs of three experiments, read-out: Early stage IC50): 910 ± 314 nM; inhibitory activity towards β-hematin formation [7]: much weaker than that of CQ |
| Fc1ccc(/C=C/c2cc(NCCCCN3CCOCC3)c3cc(Cl)ccc3n2)cc1F [Compound 105] |  | 241 | 25.5 ± 6.1 | 25.5 | 27.6 |  |  |  |  |  | IC50 (HepG2; [14]): 6.14 µM; Clint ([3]; mouse liver microsomes): 53.7 µL/min/mg; Projected t1/2 ([3]; mouse liver microsomes (MLM)): 25.8 min; % remaining after 60 min [3, 15]: 19.9% |
| CN(C)CCNc1cc(/C=C/c2cccc(F)c2)nc2ccc(Cl)cc12 [Compound 31] | 4.78 | 810 | 5.9 ± 1.4 | 5.9 |  | 43.2 | 32.1 | 38.2 |  |  | RI, resistance index = [IC50 (Dd2)/IC50 (3D7)] ([1]; Dd2 versus 3D7): 0.3; EC50 ([2]; 3D7 strain, read-out: EC50): 23 ± 2.8 nM |
| Fc1ccc(/C=C/c2cc(NCCN3CCOCC3)c3cc(Cl)ccc3n2)cc1 [Compound 81] | 17.2 ± 3.3 | 711 | 24.2 ± 0.8 | 24.2 ± 0.8 | 41.8 ± 12.7 |  |  |  | 0.6 |  |  |
| Fc1ccc(/C=C/c2cc(NCc3ccccn3)c3cc(Cl)ccc3n2)cc1 [Compound 72] | 19.8 ± 3.27 | 127 | 156 ± 34.5 | 156 ± 34.5 | 248 ± 35.1 | 65.3 | 21.2 | 52.9 | 0.6 | 156 ± 34.5 |  |
| CN1CCN(CCCCNc2cc(/C=C/c3ccncc3)nc3ccc(Cl)cc23)CC1 [Compound 96] | 8.38 ± 2.58 | 251 | 33.4 ± 5.4 | 33.4 ± 5.4 | 36.1 ± 11.3 |  |  |  | 0.9 |  |  |
| COc1ccc2nc(/C=C/c3ccco3)cc(NCCN(C)C)c2c1 [Compound 39] |  |  |  |  |  |  |  |  |  | 88.7 ± 2.3 |  |

From patent publication US12479803B2, “Antimalarial compounds” (UNIVERSITY OF CENTRAL FLORIDA RESEARCH FOUNDATION, INC., priority 2019, dated 2025)
